Results published in PubChem BioAssay (NCI).
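Compound exposure: 48 hours, 5 concentrations, 96-well plates. GI50 is the concentration that inhibits growth by half. TGI denotes the concentration required for complete inhibition of growth.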

How the values were obtained:
Test in all cases: inhibition of tumour cell growth, NCI panel, 48 h
K-562 leukemia = test system: K-562 leukemia
UACC-62 melanoma = test system: UACC-62 melanoma
OVCAR-8 ovarian = test system: OVCAR-8 ovarian
TK-10 renal = test system: TK-10 renal
KM20L2 colon = test system: KM20L2 colon
HCT-15 colon = test system: HCT-15 colon
LOX IMVI melanoma = test system: LOX IMVI melanoma
HT29 colon = test system: HT29 colon
SF-539 CNS = test system: SF-539 CNS
A549 NSCLC = test system: A549 NSCLC
OVCAR-3 ovarian = test system: OVCAR-3 ovarian
NCI-H23 lung = test system: NCI-H23 lung
SK-OV-3 ovarian = test system: SK-OV-3 ovarian
UO-31 renal = test system: UO-31 renal
HOP-18 NSCLC = test system: HOP-18 NSCLC
SK-MEL-28 melanoma = test system: SK-MEL-28 melanoma
COLO 205 colon = test system: COLO 205 colon
DLD-1 colon = test system: DLD-1 colon
M14 melanoma = test system: M14 melanoma
HL-60(TB) leukemia = test system: HL-60(TB) leukemia
ACHN renal = test system: ACHN renal
SN12C renal = test system: SN12C renal
SK-MEL-5 melanoma = test system: SK-MEL-5 melanoma
SW-620 colon = test system: SW-620 colon
LXFL 529 NSCLC = test system: LXFL 529 NSCLC

`CC(=O)[CH-]C(=O)c1ccccc1.CC(=O)[CH-]C(=O)c1ccccc1.Cl.[O-]CCc1ccccn1.[O-]CCc1ccccn1.[Ti+4]` was tested, and the TGI (K-562 leukemia) was > 100 µM, the GI50 (UACC-62 melanoma) was 23.6 µM and the TGI (UACC-62 melanoma) was > 100 µM. For the same compound, the GI50 (OVCAR-8 ovarian) was 30.1 µM, the TGI (OVCAR-8 ovarian) was > 100 µM and the GI50 (TK-10 renal) was 28.7 µM. The TGI (TK-10 renal) was 93.3 µM, the GI50 (KM20L2 colon) was 36.2 µM and the TGI (KM20L2 colon) was > 100 µM. The GI50 (HCT-15 colon) was 46.2 µM, the TGI (HCT-15 colon) was > 100 µM and the GI50 (LOX IMVI melanoma) was 25.6 µM. For the same compound, the TGI (LOX IMVI melanoma) was > 100 µM, the GI50 (HT29 colon) was 22.4 µM and the TGI (HT29 colon) was 77.1 µM. It also gave a GI50 (SF-539 CNS) of 29.8 µM, a TGI (SF-539 CNS) of 88 µM and a GI50 (A549 NSCLC) of 27.8 µM. For the same compound, the TGI (A549 NSCLC) was 95.9 µM, the GI50 (OVCAR-3 ovarian) was 32.3 µM and the TGI (OVCAR-3 ovarian) was > 100 µM. It also gave a GI50 (NCI-H23 lung) of 24.7 µM, a TGI (NCI-H23 lung) of 53.8 µM and a GI50 (SK-OV-3 ovarian) of 39.5 µM. For the same compound, the TGI (SK-OV-3 ovarian) was > 100 µM, the GI50 (UO-31 renal) was 17.4 µM and the TGI (UO-31 renal) was 47.4 µM. For the same compound, the GI50 (HOP-18 NSCLC) was 36.2 µM, the TGI (HOP-18 NSCLC) was 94.8 µM and the GI50 (SK-MEL-28 melanoma) was 20.6 µM. For the same compound, the TGI (SK-MEL-28 melanoma) was 55.1 µM, the GI50 (COLO 205 colon) was 29.3 µM and the TGI (COLO 205 colon) was 72.2 µM. For the same compound, the GI50 (DLD-1 colon) was 30.4 µM, the TGI (DLD-1 colon) was > 100 µM and the GI50 (M14 melanoma) was 22 µM. The TGI (M14 melanoma) was 70.5 µM, the GI50 (HL-60(TB) leukemia) was 21.2 µM and the TGI (HL-60(TB) leukemia) was 93.5 µM. For the same compound, the GI50 (ACHN renal) was 33.4 µM, the TGI (ACHN renal) was > 100 µM and the GI50 (SN12C renal) was 36.1 µM. For the same compound, the TGI (SN12C renal) was > 100 µM, the GI50 (SK-MEL-5 melanoma) was 20 µM and the TGI (SK-MEL-5 melanoma) was 53.6 µM. For the same compound, the GI50 (SW-620 colon) was 29.5 µM, the TGI (SW-620 colon) was > 100 µM and the GI50 (LXFL 529 NSCLC) was 15.6 µM. It also gave a TGI (LXFL 529 NSCLC) of 38 µM.
